The values that follow come from article PMC10818308, “Phytochemicals from Pterocarpus angolensis DC and Their Cytotoxic Activities against Breast Cancer Cells” (Plants, 2024).

In brackets after ≈: the same amount, converted by molar mass.

The subject of series [1] is triple-negative breast cancer (HCC70) cell line. Kind of series: Resazurin cytotoxicity assay, HCC70. It is filed as cell-based. Conditions: for IC50: Homo sapiens; for IC50 / IC50 (µM) HCC70: HCC70 cells, 96 h treatment, resazurin; for SI (Selectivity Index), IC50 of MCF-12A/IC50 of HCC70: HCC70 versus MCF-12A. The procedure: (§1) The cytotoxicity of the pure compounds was evaluated using the in vitro cell culture against triple-negative breast cancer (HCC70) cell lines, hormone receptor-positive breast cancer (MCF-7), and non-tumorigenic epithelial cell lines derived from breast tissue (MCF-12A). A compound’s ability to inhibit a particular biochemical function is determined by its half-maximum inhibitory concentration (IC50). Etoposide was used as the positive control.
(§2) The cell viability after treatment with the isolated pure compounds of P. angolensis was analyzed using the resazurin assay in commercially available established cell lines purchased from the American Type Culture Collection. Triple-negative breast cancer cell line (HCC70) (estrogen receptor (ER)^−, progesterone receptor (PR), (HER-2)^−, (ATCC-CRL-2315)), hormone receptor-positive (ER^+, PR ^+, HER-2) breast cancer cell line (MCF-7) (ATCC: HTB-22), and non-tumorigenic breast epithelial cell line (MCF-12A) (ATCC: CRL-10782, a kind gift from Anna-Mart Engelbrecht, Stellenbosch University, Stellenbosch, South Africa) were maintained in culture in a 9% CO2 incubator at 37 °C. The HCC70 cell line was cultured in RPMI-1640 media (Gibco, Trenton, MI, USA) supplemented with 10% (v/v) fetal bovine serum (FBS) (BioWest, Nuaillé, France), 1% (v/v) 100 U/mL penicillin, streptomycin, and amphotericin (PSA) (Lonza, Basel, Switzerland), 1% (v/v) GlutaMAX^TM (Gibco) and 0.25% (v/v) sodium bicarbonate (Gibco). The MCF-7 cell line cell was cultured in Dulbecco’s Modified Eagles Medium (DMEM) (Gibco) supplemented with 10% (v/v) FBS, 1% (v/v) PSA and 1% (v/v) GlutaMAX^TM. The MCF-12A cell line was cultured in DMEM/Ham’s F-12 (BioWest) supplemented with 10% (v/v) FBS, 1% (v/v) PSA, 20 ng/mL human epidermal growth factor (Sigma, St. Louis, MO, USA), 100 ng/mL cholera toxin (Sigma), 500 ng/mL hydrocortisone (Abcam, Cambridge, UK) and 10 μg/mL insulin (Novo Nordisk, Bagsværd, Denmark). All cells were seeded into 96-well plates at a density of 5000 cells per well and allowed to adhere for the night in a 9% CO2 incubator at 37 °C. The cells were subsequently treated for 96 h at 37 °C in an incubator with 9 percent CO2 with the isolated compounds with […] at concentrations ranging from 15.63 to 500.00 μM or with 0.2% (v/v) DMSO (Sigma) as a vehicle control. Thereafter, 0.54 nM of resazurin (Glentham Life Sciences, Corsham, UK) solution was added, and cells were then cultured for two to four hours at 37 °C in an incubator with 9% CO2. A Spectramax spectrophotometer (Molecular Devices, Sunnyvale, CA, USA) was used to measure the fluorescence of the resulting solutions. The excitation and emission wavelengths were set at […], respectively. The experiment was repeated in technical triplicate, and the data were analyzed using GraphPad Prism (Boston, MA, USA). […] The selectivity index (SI) value of each compound was calculated as the ratio of IC50 of MCF-12A/IC50 of HCC70 or MFC-7 of the same compound, where an SI > 1 implies toxicity that is preferentially toxic to cancer cells compared to non-cancerous cells.

Series [2] deals with non-tumorigenic breast epithelial cell line (MCF-12A). Description: Resazurin cytotoxicity assay, MCF-12A. It is filed as cell-based. The following applies: Homo sapiens, MCF-12A cells, 96 h treatment, read-out: IC50 (µM) MCF12A. Here is the method:
as §1, §2

The test system of series [3] is hormone receptor-positive breast cancer cell line (MCF-7). Description: Resazurin cytotoxicity assay, MCF-7. It is filed as cell-based. The following applies: for IC50: Homo sapiens, MCF7; for SI (Selectivity Index), IC50 of MCF-12A/IC50 of MCF-7: MCF-7 versus MCF-12A.
In a further series the test system is Lactuca sativa seeds. Also noted: method as in PMID 19127726. The following applies: cited from earlier work.
The test system of another series is insect-derived sf9. Also noted: method as in PMID 19127726. Conditions: cited from earlier work.
Series [4] deals with Acinetobacter calcaoceuticus. Also noted: method as in PMID 19583913. Conditions: cited from earlier work.
A further series concerns Staphylococcus aureus. The arrangement: method as in PMID 19583913. The following applies: cited from earlier work.
A further series deals with CCRF-CEM cells. The arrangement: method as in earlier work. Conditions: read-out: IC50 cytotoxicity; cited from earlier work.
Series [5] concerns glioblastoma U87MG.EGFR cells, CEM/ADR5000 leukemia cells. The arrangement: method as in earlier work. The following applies: read-out: IC50 cytotoxicity; cited from earlier work.
The test system of series [6] is human ovarian cancer cell line, SKOV3. Also noted: method as in PMID 32095097. The following applies: SKOV3 cells; read-out: IC50 cytotoxicity; cited from earlier work.
The test system of series [7] is human endometrial carcinoma cell line HEC-1A. Also noted: method as in PMID 32095097. Conditions: HEC-1A cells; read-out: IC50 cytotoxicity; cited from earlier work.
Series [8] concerns HeLa cervical cancer cells. Also noted: method as in doi:10.15408/jkv.v1i1.20068. Conditions: read-out: IC50 cytotoxicity; cited from earlier work.
The subject of series [9] is oral epithelial carcinoma cells (KB/C152). The arrangement: method as in PMID 32334461. The following applies: cited from earlier work.
The subject of a further series is MCF-7. The arrangement: method as in PMID 28619518. Conditions: 48 h; read-out: activity against MCF-7; cited from earlier work.
Series [10] deals with 2E1 human liver microsomal. The arrangement: method as in PMID 30122094. The following applies: read-out: inhibition of 2E1; cited from earlier work.
Another series has as its system CYP3A4. The arrangement: method as in PMID 30122094. Conditions: read-out: inhibition of CYP3A4; cited from earlier work.
Another series concerns Kocuria kristinae. Also noted: method as in PMID 19583913. The following applies: cited from earlier work.
The test system of the next series is Staphylococcus typhi. Also noted: method as in PMID 19583913. Conditions: cited from earlier work.
The mark [11] stands for this setting: MCF-7 cells, 96 h treatment, resazurin.

Take `COc1cc([C@@H]2c3cc4c(cc3[C@@H](O[C@@H]3O[C@@H]5CO[C@@H](C)O[C@H]5[C@H](O)[C@H]3O)[C@H]3COC(=O)[C@H]23)OCO4)cc(OC)c1O` [Etoposide, reference compound]: the IC50 in [1] was determined as 44.8 µM; in [2], 10.9 µM.

`CC1=C(O)C(=O)CC2[C@]3(C)CC[C@@]4(C)C5CC(C)(C)CC[C@]5(C)CC[C@]4(C)C3CC[C@]12C` (some centres unmarked) [Compound 3, 3-hydroxyfriedel-3-en-2-one] yielded a melting point of 265 to 268 °C. Further, in series [1], the “SI (Selectivity Index), IC50 of MCF-12A/IC50 of HCC70” value (shortened to “SI (Selectivity Index) … of HCC70”) amounted to 0.93 and the IC50 was found to be 146 µM. In [3] (setting [11]), the IC50 amounted to 101 µM. Moreover, the “SI (Selectivity Index), IC50 of MCF-12A/IC50 of MCF-7” value (“SI (Selectivity Index) … of MCF-7” for short) in series [3] was found to be 1.35. Moreover, the IC50 in [2] worked out at 136 µM.

On to `C[C@H]1C(O)C(=O)CC2[C@]3(C)CC[C@@]4(C)C5CC(C)(C)CC[C@]5(C)CC[C@]4(C)C3CC[C@@]21C` (stereo partly drawn) [Compound 2, 3α-hydroxyfriedel-2-one], for which, in the series with Lactuca sativa seeds, the phytotoxicity against germination entry is on record as “no phytotoxicity”. Further, the “IC50 (µM) HCC70” value in series [1] is given as “Non-Toxic”. The IC50 came out at 157 µM in series [3] (setting [11]) and 84.2 µM in series [2]. Moreover, in [3], the “SI (Selectivity Index) … of MCF-7” value was determined as 0.53. The “cytotoxicity effect on sf9” value with insect-derived sf9 is 8.32 µg/mL.

`CCCCCCCCCCCCCCOC(=O)/C=C/c1ccc(O)c(OC)c1` [Compound 8, tetradecyl (E)-ferulate] showed a melting point of 68 to 70 °C. In addition, in series [1], the “SI (Selectivity Index) … of HCC70” value was found to be 0.05 and the IC50 was determined as 128 µM. Also, the IC50 in [3] (setting [11]) came out at 223 µM. The “SI (Selectivity Index) … of MCF-7” value in series [3] is on record as 0.03. Besides, the IC50 in series [2] was determined as 6.95 µM.

Turning to epicatechin-3-O-gallate, the “minimum inhibition concentration (MIC)” value (in series [4]; with Staphylococcus aureus) was 50 µg/mL throughout.

Regarding `C=C(C)[C@@H]1CC[C@]2(C)CC[C@]3(C)[C@H](CC[C@@H]4[C@@]5(C)CC[C@H](O)C(C)(C)[C@@H]5CC[C@]43C)[C@@H]12` [Compound 4, lup-20(29)-en-3-ol], the “IC50 (µM) HCC70” value in [1] is “Non-Toxic”. In addition, the IC50 in series [3] (setting [11]) is 149 µM; in [2], 36.6 µM; with CCRF-CEM cells it was 0.02 to 66.8 µM; in [5] it was 13.6 to 69.4 µM. The “SI (Selectivity Index) … of MCF-7” value in series [3] was determined as 0.25.

For the compound `CC(=O)OC1CCC2(C)C(CCC3(C)C2CC=C2C4CC(C)(C)CCC4(C(=O)O)CCC23C)C1(C)C` (stereo not drawn) [Compound 7, (3β)-3-acetoxyolean-12-en-28-oic acid], the “SI (Selectivity Index) … of HCC70” value in series [1] is 0.97. Moreover, the IC50 was 147 µM in series [1]; 83.1 µM in [3] (setting [11]); 143 µM in series [2]; 8.3 µM in series [6]; 0.8 µM in [7]. In series [3], the “SI (Selectivity Index) … of MCF-7” value is 1.72.

As to `COc1ccc(C(C)C(=O)c2ccc(OC)cc2O)cc1` (centres unmarked) [Compound 6, 4-O-methylangolensis], the melting point was in the range of 70 to 71 °C. In series [1], the “SI (Selectivity Index) … of HCC70” value is on record as 1.32 and the IC50 came out at 111 µM. The same compound yielded an IC50 in series [3] (setting [11]) of 77.5 µM. Besides, the “SI (Selectivity Index) … of MCF-7” value in series [3] is listed as 1.91. Moreover, the IC50 in series [2] was 148 µM.

Consider `CC[C@H](/C=C/[C@@H](C)[C@H]1CC[C@H]2[C@@H]3CC=C4C[C@@H](O)CC[C@]4(C)[C@H]3CC[C@]12C)C(C)C` [Compound 5, Stigmasta-5-22-dien-3-ol], for which the IC50 was 26.4 µM in series [8], 109 µM in series [1], 227 µM in series [3] (setting [11]) and 44.1 µM in series [2]. The “SI (Selectivity Index) … of HCC70” value in series [1] was determined as 0.40. Besides, in series [3], the “SI (Selectivity Index) … of MCF-7” value is 0.19. In addition, in series [9], the IC50 cytotoxicity was 81.18 µg/mL (≈ 197 µM).

For the compound `C[C@H]1C(=O)CC[C@@H]2[C@]1(C)CC[C@H]1[C@@]2(C)CC[C@@]2(C)[C@@H]3CC(C)(C)CC[C@]3(C)CC[C@]12C` [Compound 1, friedelan-3-one], in series [1], the “IC50 (µM) HCC70” value is recorded as “Non-Toxic”. Besides, the IC50 in the series with MCF-7 is 1.2 µM; in series [2] it was 43.9 µM; in [10], 22.5 µM; with CYP3A4 it was 10.8 µM. The “IC50 (µM) MCF7” value in [3] (setting [11]) is reported as “Non-Toxic”.

Regarding hexamer of epicatechin, the “minimum inhibition concentration (MIC)” value with Kocuria kristinae and in the series with Staphylococcus typhi was 25 µg/mL each time.
